# Experimental data from paper PMC3380929 (PLoS Pathogens, 2012).
# “Also recorded” adds a separate entry of the source. Positions of bridges follow the written chain, without caps; N, C: chain ends. Residues, ends and D or L forms follow the SMILES beside them.
# Legend:
# PfAMA1 from strain 3D7 = PfAMA1 from strain 3D7 (Plasmodium falciparum, UniProt Q7KQK5); assay: SPR binding to immobilized recombinant PfAMA1 3D7; design: species or system P. falciparum (strain 3D7); conditions: ratio PfRON2sp1 vs PfRON2sp2, SPR
# Description: (§1) (ii) P. pastoris expression: Synthetic genes were optimized for PfAMA1 coding of residues 97–442, from strains 3D7 (Genbank accession number U33274), CAMP (accession number M34552) and HB3 (accession number U33277). Potential N-glycosylation sites were mutated and genes were cloned EcoRI-KpnI in the pPicZalpha A vector (Invitrogen), resulting in an 11-residues sequence extension followed by myc-epitope and hexa-His tags at the C-terminus), expressed in P. pastoris, and purified as described. Yield after purification was approximately 20 mg per L of culture. PfAMA1 FVO (residues 25–545, no tags, accession number AJ277646) was produced as described before. The DiCo3 protein was modified compared to the published protein [23]; it includes the PfAMA1 FVO prodomain (amino acids 25–96) and one additional mutation to minimize proteolytic cleavage Lys376–>Arg (B. Faber, unpublished results). The PfAMA1 3D7mut (Ile225–>Asn, residues 25–545, no tags) mutant was generated by site-directed mutagenesis (Genscript) and produced in P. pastoris in a similar fashion to the native protein [29].
# (§2) A 39-residue peptide corresponding to residues 2021 to 2059 of PfRON2 (PfRON2sp1) was synthesized by Kinexus (Vancouver, Canada) and disulfide cyclized. […]
# P. falciparum 3D7 or HB3 = assay: Red blood cell invasion assay, cross-strain (3D7 and HB3); format: cell-based, P. falciparum (strains 3D7 and HB3); conditions: for Cross-strain reactivity of invasion inhibition: 3D7 or HB3, peptides 0.2 to 20 µM, 16 hours post-invasion, N = 3; for Inhibition of erythrocyte invasion: P. falciparum merozoites, in words
# Method: (§3) The P. falciparum cell cultures and the invasion assays were performed as described previously. Briefly, highly synchronized P. falciparum 3D7 and HB3 schizonts (1.5% hematocrit, 1.5% parasitemia) were incubated with R1 or PfRON2sp1 peptides. Blood smears were collected 16 hours post-invasion and used for ring-stage parasites counting. The results presented are representative of three independent experiments, each performed in triplicate.
# [1] = system: PfAMA1 from 3D7, CAMP, FVO and HB3; assay: SPR binding compared across PfAMA1 strains; design: species or system P. falciparum
# Description: as §1
# A 39-residue peptide corresponding to residues 2021 to 2059 of PfRON2 (PfRON2sp1) was synthesized by Kinexus (Vancouver, Canada) and disulfide cyclized. Lyophilized PfRON2sp1 was solubilized in 100% DMSO and subsequently diluted in HBS (20 mM HEPES pH 7.5, 150 mM NaCl) for use in co-crystallization and functional studies. Peptides PfRON2sp2 (residues 2027 to 2054) and R1 were synthesized by PolyPeptide (Strasbourg, France) and solubilized in 3.5% DMSO for subsequent use.
# SPR measurements were made with a Biacore 2000 instrument (Biacore AB). AMA1 proteins diluted in 10 mM sodium acetate pH 4.5 for 3D7, CAMP, HB3 and FVO strains, or pH 4.0 for 3D7mut and Dico3, were covalently immobilized by an amine-coupling procedure on CM5 sensor chips (GE Healthcare). The reference flow cell was prepared by the same procedure in absence of protein. […]
# P. falciparum 3D7 = assay: Red blood cell invasion assay, P. falciparum 3D7; format: cell-based, P. falciparum (strain 3D7); conditions: peptides 0.2 to 20 µM, parasitemia of IRBC 16 hours post-invasion, N = 3
# Method: as §3
# PfAMA1 from strain CAMP = assay: SPR binding to immobilized recombinant PfAMA1 CAMP; design: species or system P. falciparum (strain CAMP); conditions: SPR Biacore 2000, AMA1 immobilized on CM5, 25°C, PBS and 0.005% Tween 20, steady-state model (Req extrapolated), mean ± SD, at least three independent experiments, read-out: Apparent equilibrium dissociation constant KD
# Description: as §1, §2
# [2] = molecular target: PfAMA1 FVO (residues 25-545, no tags) (Plasmodium falciparum (strain FVO)); assay: SPR; Biacore 2000; PfAMA1 (3D7, CAMP, HB3, FVO) amine-coupled on CM5 at pH 4.5; PfRON2sp peptides injected; 25°C, PBS with 0.005% Tween 20, 5 µL/min; apparent KD from a steady-state model, Req extrapolated
# [3] = molecular target: PfAMA1 3D7 (residues 97-442), P. pastoris expression (Plasmodium falciparum (strain 3D7)) (UniProt Q7KQK5); assay: as above
# [4] = molecular target: PfAMA1 HB3 (residues 97-442), P. pastoris expression (Plasmodium falciparum (strain HB3)); assay: as above
# [5] = molecular target: PfAMA1 CAMP (residues 97-442), P. pastoris expression (Plasmodium falciparum (strain CAMP)) (UniProt P50489); assay: as above
# PfAMA1 3D7 = PfAMA1 3D7 (Plasmodium falciparum, UniProt Q7KQK5); assay: Isothermal titration calorimetry of R1 with PfAMA1 3D7; format: binding, P. falciparum (strain 3D7); conditions: ITC200, PfAMA1 3D7 (P. pastoris) 0.6 µM, R1 55 µM, PBS, 25°C, 1∶1 interaction model
# Method: ITC measurements were made using a ITC200 calorimeter (MicroCal). PfAMA1 3D7 (P. pastoris) and peptide R1 were diluted in PBS to final concentrations of 0.6 µM and 55 µM, respectively. PfAMA1 3D7 (initial volume 200 µL) was titrated at 25°C by consecutive injections of the peptide R1 (2 µL aliquots at 3 min intervals). Raw data were normalized and corrected for the heat of dilution of R1 in PBS. Binding stoichiometry was determined by fitting the final data to a 1∶1 interaction model using the Origin7 software (OriginLab).
# crystal structure = molecular target: the molecule itself; assay: crystal structure
molecule,measurement,setting,value
CC[C@H](C)[C@H](NC(=O)[C@H](CC(=O)O)NC(=O)[C@H](CCCCN)NC(=O)[C@H](C)NC(=O)[C@H](CCC(N)=O)NC(=O)[C@H](CCC(N)=O)NC(=O)[C@@H](NC(=O)[C@@H](NC(=O)[C@@H](N)CC(=O)O)[C@@H](C)CC)[C@@H](C)O)C(=O)NCC(=O)N[C@@H](C)C(=O)NCC(=O)N1CCC[C@H]1C(=O)N[C@H](C(=O)N[C@@H](C)C(=O)N[C@@H](CO)C(=O)N[C@H]1CSSC[C@@H](C(=O)N[C@@H](CC(C)C)C(=O)N[C@@H](CC(N)=O)C(=O)N[C@@H](CO)C(=O)N[C@H](C(=O)N[C@H](C(=O)N[C@@H](CC(N)=O)C(=O)N[C@H](C(=O)N[C@@H](C)C(=O)N[C@@H](CC(C)C)C(=O)N[C@@H](CO)C(=O)O)[C@@H](C)O)C(C)C)C(C)C)NC(=O)[C@H]([C@@H](C)CC)NC(=O)[C@H](CCC(N)=O)NC(=O)[C@H](CCC(N)=O)NC(=O)[C@@H]2CCCN2C(=O)[C@@H]2CCCN2C(=O)[C@H](CO)NC(=O)[C@H](CCSC)NC(=O)[C@H](CCCNC(=N)N)NC(=O)[C@H]([C@@H](C)O)NC(=O)[C@H]([C@@H](C)O)NC(=O)[C@H](Cc2ccccc2)NC1=O)C(C)C [PfRON2sp1],Affinity of PfAMA1 from 3D7 for PfRON2sp1 higher than for PfRON2sp2,PfAMA1 from strain 3D7,25 fold
same,Cross-strain reactivity of invasion inhibition,P. falciparum 3D7 or HB3,cross-strain inhibition of invasion; also recorded: cross-strain reactivity; also recorded: not strain specific
same,Cross-strain reactivity of invasion inhibition,P. falciparum 3D7 or HB3; listed as PfRON2 peptide,strong inhibitory potency is not affected by AMA1 polymorphisms
same,Inhibition of erythrocyte invasion,P. falciparum 3D7 or HB3,very efficient at inhibiting invasion
same,Inhibition of erythrocyte invasion,P. falciparum 3D7 or HB3; listed as PfRON2 peptide,inhibits erythrocyte invasion
same,Affinity for PfAMA1 relative to R1 peptide,"[1]; all the PfAMA1 proteins tested, SPR, compared with R1",higher affinity than for R1 peptide
same,Affinity to PfAMA1,[1]; in words,very high affinity to PfAMA1
same,Inhibition of red blood cell invasion relative to R1 peptide,P. falciparum 3D7,higher capacity to inhibit red cell invasion; also recorded: higher inhibitory efficiency
same,Kd,PfAMA1 from strain CAMP,14.6 ± 3.8 nM
PfRON2sp1 (PfRON2 residues 2021-2059) (peptide),Kd,[2],9.2 nM
same,Kd,[3],20.3 nM
same,Kd,[4],18.3 nM
same,Kd,[5],14.6 nM
PfRON2sp2 (PfRON2 residues 2027-2055) (peptide),Kd,[2],80 nM
same,Kd,[3],520 nM
same,Kd,[4],680 nM
same,Kd,[5],165 nM
CC[C@H](C)[C@H](NC(=O)[C@H](CC(=O)O)NC(=O)[C@@H](N)CCCCN)C(=O)NCC(=O)N[C@@H](C)C(=O)NCC(=O)N1CCC[C@H]1C(=O)N[C@H](C(=O)N[C@@H](C)C(=O)N[C@@H](CO)C(=O)N[C@H]1CSSC[C@@H](C(=O)N[C@@H](CC(C)C)C(=O)N[C@@H](CC(N)=O)C(=O)N[C@@H](CO)C(=O)N[C@H](C(=O)N[C@H](C(=O)N[C@@H](CC(N)=O)C(=O)O)C(C)C)C(C)C)NC(=O)[C@H]([C@@H](C)CC)NC(=O)[C@H](CCC(N)=O)NC(=O)[C@H](CCC(N)=O)NC(=O)[C@@H]2CCCN2C(=O)[C@@H]2CCCN2C(=O)[C@H](CO)NC(=O)[C@H](CCSC)NC(=O)[C@H](CCCNC(=N)N)NC(=O)[C@H]([C@@H](C)O)NC(=O)[C@H]([C@@H](C)O)NC(=O)[C@H](Cc2ccccc2)NC1=O)C(C)C [PfRON2sp2] (H-KDIGAGPVASCFTTRMSPPQQICLNSVVN-OH; disulfide 11-23; N-terminus and C-terminus assumed),Difference in affinity of PfAMA1 3D7 and CAMP homologs,"[1]; 3D7 vs CAMP, SPR",no significant difference in the affinity
same,Kd,PfAMA1 from strain CAMP,165 ± 42 nM
CC[C@H](C)[C@H](NC(=O)[C@H](Cc1cnc[nH]1)NC(=O)[C@H](CCSC)NC(=O)[C@H](CCCNC(=N)N)NC(=O)[C@H](CO)NC(=O)CNC(=O)[C@H](Cc1ccccc1)NC(=O)[C@H](CCCCN)NC(=O)[C@H](CO)NC(=O)[C@H](Cc1ccccc1)NC(=O)[C@H](CC(C)C)NC(=O)[C@@H]1CCCN1C(=O)[C@H](CC(C)C)NC(=O)[C@H](Cc1ccccc1)NC(=O)[C@H](CCC(=O)O)NC(=O)[C@H](C)NC(=O)[C@H](Cc1ccccc1)NC(=O)[C@@H](N)C(C)C)C(=O)N[C@@H](CC(C)C)C(=O)N[C@@H](CCCCN)C(=O)O [R1] (H-VFAEFLPLFSKFGSRMHILK-OH),Kd,PfAMA1 3D7,145 nM
VFAEFLPLFSKFGSRMHILK (source: synthetic peptide (PolyPeptide)) [invasion-inhibitory peptide R1],binding result,crystal structure,binds
